Experiments:
MSSA strain RN4220 = assay: PMMD (phage K RT-qPCR) antibiotic sensitivity assay, MSSA; format: cell-based, Staphylococcus aureus; settings: cefoxitin 4 μg/ml, with vs without fox, phage K gp125 RNA qPCR
Protocol: (§1) Staphylococcus aureus (S. aureus) bacterial cultures were grown for one hour in LB-Lennox (10 g/l Tripone, 5 g/l yeast extract and 5 g/l NaCl) media at 37° C. with strong aeration (225 rpm shaking). For antibiotic sensitivity assays the cultures were grown for one or three hours, as indicated, and cefoxitin (Sigma-Aldrich) was added at a final concentration of 4 μg/ml using a 1,000× stock in water.
(§2) The reactions were performed by mixing 50 μl of S. aureus bacterial cultures (˜2×10^9 cfu/ml) and 50 μl of a phage K lysate ( about 5×10^8 pfu/ml) or 1 μl of CsCl gradient purified phage K (about 1×10^10 pfu/ml). The mixtures were incubated on ice for 3-4 minutes and the infections were allowed to proceed for 10 minutes, unless indicated otherwise, at 37° C. with shaking (400 rpm). Five minutes prior to the end of the incubation, lysostaphin (Sigma-Aldrich) w as added from a 20× stock (2 mg/ml).
(§3) Single-step fluorescent quantitative or real-time PCR (qPCR) was done with Luna one-step RT-qPCR kit (NEB) using low profile clear 0.2 ml PCR tubes and optical ultraclear flat caps (BioRad). The reactions were run in a CFX96 real-time PCR detection system (BioRad) with CFX Manager 3. Quantification cycle values (Cqs) were auto calculated by the software, and ranged front about […]. […] 10 minutes/35× (95° C. 10 seconds, 60° C. 30 seconds, plate read). […]

MRSA strain SA-1012.COI = assay: PMMD (phage K RT-qPCR) antibiotic sensitivity assay, MRSA; format: cell-based, Staphylococcus aureus; settings: cefoxitin 4 μg/ml, with vs without fox, phage K gp125 RNA qPCR
Protocol: as §1, §2, §3

Structure (SMILES): CO[C@@]1(NC(=O)Cc2cccs2)C(=O)N2C(C(=O)O)=C(COC(N)=O)CS[C@@H]21 [fox, cefoxitin]
- increase of Cq values on addition of fox in the media (MSSA strain RN4220; one hour of incubation): about 1.5
- increase of Cq values on addition of fox in the media (MSSA strain RN4220; three hours of incubation): about 11.5
- Cq increase in the presence of fox (MRSA strain SA-1012.COI; one hour of incubation): about 1.0
- Cq increase in the presence of fox (MRSA strain SA-1012.COI; three hours of incubation): about 0.0

— patent US20200308622A1, “Phage-Mediated Molecular Detection Methods and Related Aspects” (United States of America as represented by the Secretary of …, priority 2017, published 2020)
